Structures are written as SMILES. Read-outs that look alike come from different tables or passages of the source.

The test system of assay [1] is HOX-med/low AML patient cells. As to the kind of experiment: Primary chemical screen of 60 compounds, cell dose-response viability assay (CellTiterGlo, 6 days). In kind it is cell-based, human. To be noted: read-out: MEAN EC50 HOX-med/low. As for the experimental part: (§1) frozen AML mono-nucleated cells were thawed at 37° C. in Iscove's modified Dulbecco's medium (IMDM) containing 20% FBS and DNase I (100 μg/mL).
(§2) All powders were dissolved in DMSO and diluted in culture medium immediately before use. Final DMSO concentration in all conditions was 0.1%. The 60 compounds were purchased from various suppliers including Santa Cruz, Selleckchem, Calbiochem, AdooQ Bioscience, Cayman chemical and Synkinase.
(§3) Patient cells were seeded in 384-well plates at a density of 5,000 cells in 50 μL per well. In the initial screen, compounds were added to seeded cells in serial dilutions (10 dilutions, 1:3, starting from 10 μM or 20 μM), in duplicates. Cells treated with 0.1% DMSO without additional compound were used as negative controls. Viable cell counts per well were evaluated after 6 days of culture using the CellTiterGlo® assay (Promega®) according to the manufacturer's instruction.
(§4) Using high expression of HOXA9 and HOXA10 as a surrogate for the detection of HOX-network-high patient samples, the survival of HOX-high versus HOX-med/low specimens contacted with 60 inhibitors targeting receptor tyrosine kinases (RTK), members of the RAS and PI3K pathways, was assessed (FIG. 2A, Table 4).

Assay [2] has as its system HOX-high AML patient cells. The assay is described as above. In kind it is cell-based, human. Particulars: for EC50: read-out: MEAN EC50 HOX-high. How it is done:
as §1, §2, §3, §4

The mark [3] stands for this setting: Homo sapiens, 144 h, primary screen, mean over HOX-med/low patient specimens, 6 days culture, top concentration 10 μM or 20 μM.
The mark [4] stands for this setting: Homo sapiens, 144 h, primary screen, mean over HOX-high patient specimens, 6 days culture, top concentration 10 μM or 20 μM.
Where [5] appears, read: ratio of mean EC50 HOX-high to mean EC50 HOX-med/low.
Where [6] appears, read: primary screen, mean over HOX-med/low patient specimens, 6 days culture, top concentration 10 μM or 20 μM.
Setting [7] is: primary screen, mean over HOX-high patient specimens, 6 days culture, top concentration 10 μM or 20 μM.

In the case of `Cc1ccc(NC(=O)c2ccc(CN3CCN(C)CC3)cc2)cc1Nc1nc(-c2cccnc2)cs1` [Masitinib], the EC50 worked out at 4.57 µM in assay [1] (setting [3]) and 7.01 µM in assay [2] (setting [4]). Also, the “FOLD CHANGE High/Med-low” value in assay [2] (setting [5]) is 1.5.
Take `COc1cc2nccc(Oc3ccc(NC(=O)Nc4ccc(F)cc4F)c(F)c3)c2cc1OC` [Ki8751]: the EC50 in assay [1] (setting [6]) came out at 0.768 µM; in assay [2] (setting [7]) it was 0.844 µM. The “FOLD CHANGE High/Med-low” value in assay [2] (setting [5]) is 1.1.
For `CN1CCC(c2[nH]nc(-c3ccc(Cl)cc3)c2-c2ccncn2)CC1` [p38 MAP Kinase Inhibitor V], in that order: 8.79 µM, 7.31 µM and 0.8.
`CC(C)(C)c1cc(NC(=O)Nc2ccc(-c3cn4c(n3)sc3cc(OCCN5CCOCC5)ccc34)cc2)no1` [Quizartinib]: the EC50 in assay [1] (setting [3]) was 0.52 µM; in assay [2] (setting [4]), 0.23 µM. Moreover, the “FOLD CHANGE High/Med-low” value in assay [2] (setting [5]) was found to be 0.4.
For the compound `Cc1[nH]c(/C=C2\C(=O)Nc3cc(-c4ccccc4)ccc32)c(C)c1CCC(=O)O` [PDGFR Tyrosine Kinase Inhibitor VII], the values for the EC50 in assay [1] (setting [6]) and in assay [2] (setting [7]) were 2.84 µM and 6 µM, respectively. Further, the “FOLD CHANGE High/Med-low” value in assay [2] (setting [5]) was found to be 2.1.
`Cc1cn(-c2cc(NC(=O)c3ccc(C)c(Nc4nccc(-c5cccnc5)n4)c3)cc(C(F)(F)F)c2)cn1` [Nilotinib]: the EC50 in assay [1] (setting [3]) worked out at 3.81 µM; in assay [2] (setting [4]), 3.92 µM. Also, the “FOLD CHANGE High/Med-low” value in assay [2] (setting [5]) worked out at 1.0.
Taken in the same sequence, the figures for `CCCS(=O)(=O)Nc1ccc(F)c(C(=O)c2c[nH]c3ncc(-c4ccc(Cl)cc4)cc23)c1F` [Vemurafenib] were 8.44 µM, 9.7 µM and 1.2.
With `COc1ccc(-c2ccc3c(N4CCOC[C@@H]4C)nc(N4CCOC[C@@H]4C)nc3n2)cc1CO` [AZD8055, (5-(2,4-bis((S)-3-methylmorpholino)pyrido[2,3-d]pyrimidin-7-yl)-2-methoxyphenyl)methanol], the EC50 in assay [1] (setting [3]) was found to be 0.0692 µM; in assay [2] (setting [4]), 0.324 µM. Further, the “FOLD CHANGE High/Med-low” value in assay [2] (setting [5]) is recorded as 4.7.
For the compound `NC(=O)N1CCC(CC(=O)N2CCC([C@H]3c4ncc(Br)cc4CCc4cc(Cl)cc(Br)c43)CC2)CC1` [Lonafarnib], the results for the EC50 in assay [1] (setting [3]) and in assay [2] (setting [4]) were 3.67 µM and 2.49 µM, respectively. Also, in assay [2] (setting [5]), the “FOLD CHANGE High/Med-low” value is recorded as 0.7.
For the compound `NC(=O)c1ccc(N(C(N)=O)c2c(F)cccc2F)nc1-c1ccc(F)cc1F` [VX702], the EC50 in assay [1] (setting [3]) is > 10 µM; in assay [2] (setting [4]), 9.55 µM. In assay [2] (setting [5]), the “FOLD CHANGE High/Med-low” value is reported as 1.0.
Consider `CNc1cc2c(Nc3cccc(Br)c3)ncnc2cn1` [PD158780], for which the EC50 in assay [1] (setting [6]) was determined as 7.71 µM; in assay [2] (setting [7]), 7.47 µM. Also, the “FOLD CHANGE High/Med-low” value in assay [2] (setting [5]) came out at 1.0.
In the case of `COc1cc2ncnc(Nc3ccc(F)c(Cl)c3)c2cc1OCCCN1CCOCC1` [Gefitinib], the “FOLD CHANGE High/Med-low” value in assay [2] (setting [5]) was 0.9.
For `Cc1ccc(C(=O)Nc2cccc(C(F)(F)F)c2)cc1Nc1nc(-c2cccnc2)nc2c1cnn2C` [NVPBHG712], the EC50 in assay [1] (setting [6]) was found to be 5.21 µM; in assay [2] (setting [7]) it was 4.44 µM. Moreover, the “FOLD CHANGE High/Med-low” value in assay [2] (setting [5]) stood at 0.9.
Taken in the same sequence, the figures for `Cc1ccc(Nc2c(C(N)=O)cnc3cc(-c4ccc(S(C)(=O)=O)cc4)ccc23)cc1C` [cFMS Receptor Inhibitor III] were 7.97 µM, 8.86 µM and 1.1.
Turning to `Cc1nc2cc3nc(-c4cccs4)cnc3cc2n1C` [AGL2043], the results for the EC50 in assay [1] (setting [6]) and in assay [2] (setting [7]) were 8.38 µM and 8.88 µM, respectively. For the same compound, the “FOLD CHANGE High/Med-low” value in assay [2] (setting [5]) is recorded as 1.1.
As to `C[S+]([O-])c1ccc(-c2nc(-c3ccc(F)cc3)c(-c3ccncc3)[nH]2)cc1` (stereo not shown) [SB.203580], the EC50 in assay [1] and in assay [2] was > 10 µM each time. Further, the “FOLD CHANGE High/Med-low” value in assay [2] came out at 1.0.
In the case of `CC(=O)Nc1cccc(-n2c(=O)n(C3CC3)c(=O)c3c(Nc4ccc(I)cc4F)n(C)c(=O)c(C)c32)c1` [Trametinib GSK1120212, Trametinib], the figures for the EC50 in assay [1] (setting [3]) and in assay [2] (setting [4]) were 0.018 µM and 0.0253 µM, respectively. In addition, the “FOLD CHANGE High/Med-low” value in assay [2] (setting [5]) is recorded as 1.4.

The values are drawn from patent publication US20200188361A1, “USE OF MITOCHONDRIAL ACTIVITY INHIBITORS FOR THE TREATMENT OF POOR PROGNOSIS ACUTE MYELOID LEUKEMIA” (UNIVERSITE DE MONTREAL, priority 2016, published 2020).
